# Target: T1, P[6] RV3 VP8* (Human rotavirus A, UniProt D7F7M7)
# T1 construct: VP8* domain, N-terminal fragment of spike protein VP4 (polyprotein-like precursor cleaved by trypsin); N-terminal GST tag removed with thrombin; E. coli BL21(DE3)
# Assay: 2D 1H-15N HSQC NMR titration, global fit of […] peaks
# Assay type: binding
# Conditions: 70 μM 15N-labeled protein, 0.5-20 mM ligand; 10 mM sodium phosphate, 50 mM NaCl, 10% D2O, pH 7; crystal structure and STD NMR also done
structure (smiles),measurement,value
CC(=O)N[C@H]1[C@H](O[C@H]2[C@@H](O)[C@@H](CO)O[C@@H](O[C@H]3[C@H](O)[C@@H](O)C(O)O[C@@H]3CO)[C@@H]2O)O[C@H](CO)[C@@H](O)[C@@H]1O[C@@H]1O[C@H](CO)[C@H](O)[C@H](O)[C@H]1O[C@@H]1O[C@@H](C)[C@@H](O)[C@@H](O)[C@@H]1O (stereo partly shown) [LNFP1],Kd,7.1 ± 0.2 mM
